Laboratory results reported in patent US4845221A, “Serotonergic substituted piperazinyl tetralins” (American Home Products Corporation, priority 1988, dated 1989).
“Also recorded” adds a separate entry of the source.

Columns and labels:
[1] = tested on: 5-HT1A serotonin receptor; conditions: cited from earlier work
[2] = tested on: 5-HT1A (a serotonin receptor subtype); conditions: Middlemiss et al., European J. of Pharmacol. 90 151 (1983); cited from earlier work
[3] = tested on: D-2 dopamine receptor; test: inhibition of 3H-spiroperidol binding, homogenized limbic brain tissue (D-2 dopamine receptor affinity); conditions: for % Inhibition 1 μM D-2: 3H-spiroperidol, limbic brain tissue
Experimental: The relatively low D-2 dopamine receptor affinity of the compounds of this invention was established by a modification of the procedure of Fields et al., Brain Res., 136, pp. 578-584 (1977) and Yamamura et al., eds. Neurotransmitter Receptor Binding, Raven Press, N.Y. (1978), wherein homogenized limbic brain tissue is incubated with ^3 H-spiroperidol and various concentrations of test compound, filtered, washed and shaken with Hydrofluor scintillation cocktail (National Diagnostics) and counted in a Packard 460 CD scintillation counter.

[4] = target: T1, 5-HT-1A serotonin receptor (Rattus norvegicus, UniProt P19327); test: displacement of [3H]8-OH DPAT from the 5-HT-1A serotonin receptor; assay type: binding; conditions: for inhibition at 1 µM / Ki: [3H]8-OH DPAT; for inhibition at 1 µM: read-out: % Inhibition 1 μm 5 HT1A; for Ki: in parentheses after % inhibition, read-out: Ki 5 HT1A; for selectivity / separation of 5-HT1A vs D-2 binding (in words): 5-HT1A relative to D-2
T1 construct: 44: 1685-1696, 1985; from tissue
T1 sequence (P19327 1-422): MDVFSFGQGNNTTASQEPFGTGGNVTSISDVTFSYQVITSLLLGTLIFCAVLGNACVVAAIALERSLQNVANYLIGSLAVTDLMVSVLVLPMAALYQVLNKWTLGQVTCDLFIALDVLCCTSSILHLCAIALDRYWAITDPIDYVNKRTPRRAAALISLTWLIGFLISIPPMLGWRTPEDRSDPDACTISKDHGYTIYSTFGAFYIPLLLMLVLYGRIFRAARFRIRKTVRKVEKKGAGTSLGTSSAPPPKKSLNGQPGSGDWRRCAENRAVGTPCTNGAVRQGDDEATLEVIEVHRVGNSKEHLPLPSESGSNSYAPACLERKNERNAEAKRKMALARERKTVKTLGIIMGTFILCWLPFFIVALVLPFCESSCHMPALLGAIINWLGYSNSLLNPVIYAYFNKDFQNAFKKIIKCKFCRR
Source text: The serotonergic properties of the compounds of this invention were established by standard pharmacologically accepted procedures involving the measurement of the compound's ability to displace [^3 H]8-OH DPAT (dipropylaminotetralin) from the 5-HT-1A serotonin receptor by the procedure of Hall et al., J. Neurochem. 44: 1685-1696, 1985.

Row | Compound | 5-HT1A receptor affinity of known agents (in words) [1] | 5-HT1A agonist activity (in words) [2] | % Inhibition 1 μM D-2 [3] | inhibition at 1 µM [4] | Ki [4] | selectivity / separation of 5-HT1A vs D-2 binding (in words) [4] | D-2 dopamine receptor binding/affinity (in words) [3] | 5-HT1A binding/affinity (in words) [4]
1 | CCCN(CCC)C1CCc2cccc(O)c2C1 (stereo not shown) [8-OH DPAT, 8-hydroxy-2-(di-n-propylamino)-tetralin] | selective 5-HT1A serotonin receptor affinity | selective 5-HT1A (a serotonin receptor subtype) agonist activity | – | – | – | – | – | –
2 | COc1cccc2c1CC(N1CCN(c3cccc(C(F)(F)F)c3)CC1)CC2 (stereo not shown) [Compound 1, 1-(1,2,3,4-tetrahydro-8-methoxy-2-naphthalenyl)-4-[3-(trifluoromethyl)phenyl]piperazine] | – | – | 5% | 97% | 11 nM | – | – | –
3 | Oc1cccc2c1CC(N1CCN(c3cccc(C(F)(F)F)c3)CC1)CC2 (stereo not shown) [Compound 2, 1-(1,2,3,4-tetrahydro-8-hydroxy-2-naphthalenyl)-4-[3-(trifluromethyl)phenyl]piperazine] | – | – | 46% | 100% | 14 nM | – | – | –
4 | COc1cccc2c1CC(N1CCN(c3ncccn3)CC1)CC2 (stereo not shown) [Compound 3, 2-[4-(1,2,3,4-tetrahydro-8-methoxy-2-naphthalenyl)-1-piperazinyl]pyrimidine] | – | – | 3% | 84.6% | 63 nM | – | – | –
5 | Oc1cccc2c1CC(N1CCN(c3ncccn3)CC1)CC2 (stereo not shown) [Compound 4, 2-[4-(1,2,3,4-tetrahydro-8-hydroxy-2-naphthalenyl)-1-piperazinyl]pyrimidine] | – | – | 0% | 91% | 109 nM | most selective serotonin receptor binding | – | –
6 | COc1ccccc1N1CCN(C2CCc3cccc(OC)c3C2)CC1 (stereo not shown) [Compound 5] | – | – | 72% | 4% | – | reverses the selective activity | relatively high dopamine receptor binding | almost complete loss of serotonin receptor agonism
7 | COc1ccc2c(c1)CC(N1CCN(c3cccc(C(F)(F)F)c3)CC1)CC2 (stereo not shown) [Compound 6] | – | – | 49% | 77% | – | unacceptable separation of properties | relative high dopamine receptor binding | reduced 5-HT1A agonism
8 | COc1ccc2c(c1)CC(N1CCN(c3ccccc3OC)CC1)CC2 (stereo not shown) [Compound 7] | – | – | 65% | 93% | – | – | higher D-2 binding | –
9 | COc1ccc2c(c1)CC(N1CCN(c3ncccn3)CC1)CC2 (stereo not shown) [Compound 8] | – | – | 11% | 83% | – | improved separation of properties with emphasis on 5-HT1A binding | – | –
10 | COc1ccc2c(c1)CCC(N1CCN(c3cccc(C(F)(F)F)c3)CC1)C2 (stereo not shown) [Compound 9] | – | – | 65% | 97% | – | – | increased D- 2 binding markedly | –
11 | Oc1ccc2c(c1)CCC(N1CCN(c3cccc(C(F)(F)F)c3)CC1)C2 (stereo not shown) [Compound 10] | – | – | 72% | 87% | – | – | which property was retained | –
12 | COc1ccc2c(c1)CCC(N1CCN(c3ncccn3)CC1)C2 (stereo not shown) [Compound 11] | – | – | – | 44% | – | – | – | marked reduction in 5-HT1A binding
13 | Oc1ccc2c(c1)CCC(N1CCN(c3ncccn3)CC1)C2 (stereo not shown) [Compound 12] | – | – | 7% | 15% | – | – | negligible D-2 binding | negligible activity
14 | O=C1CC2(CCCC2)CC(=O)N1CCCCN1CCN(c2ncccn2)CC1 [buspirone] | potent affinity; also recorded: selective 5-HT1A serotonin receptor affinity | – | – | – | – | – | – | –
15 | CC1(C)CC(=O)N(CCCCN2CCN(c3ncccn3)CC2)C(=O)C1 [gepirone] | selective 5-HT1A serotonin receptor affinity | – | – | – | – | – | – | –
16 | O=C1c2ccccc2S(=O)(=O)N1CCCCN1CCN(c2ncccn2)CC1 [ipsapirone] | selective 5-HT1A serotonin receptor affinity | – | – | – | – | – | – | –
